US20110077237A1, “KINASE INHIBITORS” (VERTEX PHARMACEUTICALS INCORPORATED, priority 2007, published 2011)

Key:
Type in all cases: biochemical
PKC theta = PKC theta (Homo sapiens, UniProt Q04759); assay: PKC Theta I coupled-enzyme (NADH absorbance) kinase assay; settings: 18 nM PKC theta, 240 μM ATP, 30° C., absorbance at 340 nm
Description: (§1) An assay buffer solution was prepared which consisted of 100 mM HEPES (pH 7.5), 10 mM MgCl2, 25 mM NaCl, 0.1 mM EDTA and 0.01% Brij. […] To 60 μL of this enzyme buffer, in a 384 well plate, was added 2 μL of VRT stock solution in DMSO. The mixture was allowed to equilibrate for 10 mins at 30° C. […] Ki values were calculated from initial rate data by non-linear regression using the Prism software package (Prism 4.0a, Graphpad Software, San Diego, Calif.).

PKC delta kinase = PKC delta kinase (Homo sapiens, UniProt Q05655); assay: PKC Delta coupled-enzyme kinase assay; settings: 46 nM PKC delta, 150 μM ATP, 30° C.; read-out: Ki PKC delta
PKC delta kinase, sequence (Q05655 whole entry): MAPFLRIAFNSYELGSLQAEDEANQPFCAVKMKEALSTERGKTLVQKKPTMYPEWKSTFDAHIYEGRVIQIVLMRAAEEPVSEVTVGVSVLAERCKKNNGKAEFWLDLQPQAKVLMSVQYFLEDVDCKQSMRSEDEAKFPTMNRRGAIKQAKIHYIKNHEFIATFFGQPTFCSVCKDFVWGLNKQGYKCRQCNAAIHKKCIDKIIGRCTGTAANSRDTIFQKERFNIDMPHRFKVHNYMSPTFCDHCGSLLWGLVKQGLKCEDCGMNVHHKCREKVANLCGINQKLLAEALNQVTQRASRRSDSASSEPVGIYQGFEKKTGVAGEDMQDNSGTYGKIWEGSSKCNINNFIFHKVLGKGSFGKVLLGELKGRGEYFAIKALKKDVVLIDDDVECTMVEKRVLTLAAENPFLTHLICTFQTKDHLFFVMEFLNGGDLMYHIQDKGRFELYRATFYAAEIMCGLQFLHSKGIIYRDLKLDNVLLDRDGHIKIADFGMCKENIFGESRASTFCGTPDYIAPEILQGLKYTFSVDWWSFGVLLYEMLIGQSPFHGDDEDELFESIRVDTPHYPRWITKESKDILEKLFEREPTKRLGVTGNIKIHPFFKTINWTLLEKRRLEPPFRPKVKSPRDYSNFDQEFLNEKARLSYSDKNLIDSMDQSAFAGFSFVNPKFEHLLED
Description: as §1, with “To 16” for “To 60”, “added 1” for “added 2”

PKC alpha kinase = PKC alpha kinase (Homo sapiens, UniProt P17252); assay: PKC Alpha coupled-enzyme kinase assay; settings: 4.5 nM PKC alpha, 130 μM ATP, 30° C.
Description: An assay buffer solution was prepared which consisted of 100 mM HEPES (pH 7.5), 10 mM MgCl2, 25 mM NaCl, 0.1 mM EDTA, 100 μM CaCl2 and 0.01% Brij. […] To 16 μL of this enzyme buffer, in a 384 well plate, was added 1 μL of VRT stock solution in DMSO. The mixture was allowed to equilibrate for 10 mins at 30° C. The enzyme reaction was initiated by the addition of 16 μL stock ATP solution prepared in assay buffer to a final assay concentration of 130 μM. Initial rate data was determined from the rate of change of absorbance at 340 nm (corresponding to stoichiometric consumption of NADH) using a Molecular Devices Spectramax plate reader (Sunnyvale, Calif.) over 15 mins at 30° C. For each Ki determination 12 data points covering the VRT concentration range of 0-20 μM were obtained in duplicate (DMSO stocks were prepared from an initial 10 mM VRT stock with subsequent 1:2 serial dilutions). Ki values were calculated from initial rate data by non-linear regression using the Prism software package (Prism 4.0a, Graphpad Software, San Diego, Calif.).

PKC theta, sequence (Q04759 whole entry): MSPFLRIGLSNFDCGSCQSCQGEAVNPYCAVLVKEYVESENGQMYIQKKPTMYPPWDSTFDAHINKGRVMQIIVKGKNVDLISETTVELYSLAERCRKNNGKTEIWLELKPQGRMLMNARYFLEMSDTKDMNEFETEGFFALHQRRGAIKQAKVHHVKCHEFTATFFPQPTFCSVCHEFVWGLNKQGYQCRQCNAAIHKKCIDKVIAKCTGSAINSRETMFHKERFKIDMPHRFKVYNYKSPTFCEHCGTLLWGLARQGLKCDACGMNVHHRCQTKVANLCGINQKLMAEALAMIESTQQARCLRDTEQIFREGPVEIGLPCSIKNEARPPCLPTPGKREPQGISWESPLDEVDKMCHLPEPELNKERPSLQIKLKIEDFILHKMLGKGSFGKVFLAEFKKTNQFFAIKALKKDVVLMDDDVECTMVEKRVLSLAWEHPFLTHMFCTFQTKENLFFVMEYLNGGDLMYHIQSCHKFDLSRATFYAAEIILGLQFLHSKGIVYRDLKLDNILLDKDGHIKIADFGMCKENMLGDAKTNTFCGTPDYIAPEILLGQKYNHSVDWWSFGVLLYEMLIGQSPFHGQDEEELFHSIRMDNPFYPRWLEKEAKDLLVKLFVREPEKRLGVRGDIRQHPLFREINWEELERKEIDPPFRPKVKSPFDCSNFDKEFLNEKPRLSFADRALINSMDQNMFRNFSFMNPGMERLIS

SMILES	Ki (PKC theta)	Ki (PKC delta kinase)	Ki (PKC alpha kinase)
Nc1ncccc1C(=O)c1cccc(N2CCCN(Cc3ccccc3)CC2)n1 [compound 160]	500 to 2800 nM		
Nc1ncc(-c2cc3ccccc3[nH]2)cc1C(=O)c1cccc(N2CCCNCC2)n1 [compound 168]	500 to 2800 nM		
Nc1ncc(Br)cc1C(=O)c1cccc(NC[C@H]2CCCC[C@@H]2O)n1 [compound 174]	500 to 2800 nM		
Nc1ncc(Br)cc1C(=O)c1cccc(NCCCN2CCCC2)n1 [compound 177]	500 to 2800 nM		
Nc1ncccc1C(=O)c1ccn(C2CCNCC2)n1 [compound 184]	500 to 2800 nM	500 to 2800 nM	500 to 2800 nM
Nc1ncc(C2=CCCCC2)cc1C(=O)c1cccc(N2CCCNCC2)n1 [compound 185]	500 to 2800 nM		
Cc1cc(C(=O)c2cccnc2N)nc(N2CCCNCC2)c1 [compound 189]	500 to 2800 nM		
Nc1ncc(NCc2ccccc2)cc1C(=O)c1cccc(N2CCCNCC2)n1 [compound 190]	500 to 2800 nM		
Nc1ncc(Br)cc1C(=O)c1cccc(N2CCNC(=O)C2)n1 [compound 196]	500 to 2800 nM		
Cc1cn(C2CCCNCC2)nc1C(=O)c1cccnc1N (stereo not shown) [compound 212]	500 to 2800 nM		
Nc1ncccc1C(=O)c1cccc(N2CCN[C@@H](Cc3ccccc3)C2)n1 [compound 215]	500 to 2800 nM		
CN1CCN(c2cccc(C(=O)c3cccnc3N)n2)CC1 [compound 216]	500 to 2800 nM		
CNc1cnc(N)c(C(=O)c2cccc(N3CCCNCC3)n2)c1 [compound 220]	500 to 2800 nM		500 to 2800 nM
Nc1ncccc1C(=O)c1cccc(N2CCN(C(=O)CC(F)(F)F)CC2)n1 [compound 224]	500 to 2800 nM		
Cc1ccc(C(=O)c2cccnc2N)nc1N1CCCNCC1 [compound 229]	500 to 2800 nM		
C[C@@H]1CNC[C@H](C)N1c1cccc(C(=O)c2cccnc2N)n1 [compound 234]	500 to 2800 nM		
Cc1ccc(C(=O)c2cccnc2N)nc1N1CCNCC1 [compound 236]	500 to 2800 nM		
Nc1ncccc1C(=O)c1ccc(Cl)c(N2CCCNCC2)n1 [compound 242]	500 to 2800 nM		
Nc1ncccc1C(=O)c1cccc(N2CCN[C@H](Cc3ccccc3)C2)n1 [compound 250]	500 to 2800 nM		

SMILES	Ki (PKC theta)	Ki (PKC delta kinase)	Ki (PKC alpha kinase)
Nc1ncccc1C(=O)c1cccc(C2CCNCC2)n1 [compound 257]	500 to 2800 nM		
Nc1ncc(-c2ccccc2O)cc1C(=O)c1cccc(N2CCNC(c3ccccc3)C2)n1 (stereo not shown) [compound 259]	500 to 2800 nM		
Nc1ncc(-c2cccnc2)cc1C(=O)c1cccc(N2CCNC(c3ccccc3)C2)n1 (stereo not shown) [compound 275]	500 to 2800 nM		
Nc1ncc(-c2ccccc2CO)cc1C(=O)c1cccc(N2CCNC(c3ccccc3)C2)n1 (stereo not shown) [compound 281]	500 to 2800 nM		
Nc1ncccc1C(=O)c1cc(N2CCNCC2)ncc1F [compound 319]	500 to 2800 nM		
CC(=O)c1ccc(N2CCN[C@@H](CC(C)C)C2)nc1C(=O)c1cccnc1N [compound 351]		500 to 2800 nM	> 2800 nM
CC(F)(F)c1ccc(N2CCNC(c3ccccc3)C2)nc1C(=O)c1cccnc1N (stereo not shown) [compound 355]		50 to 500 nM	500 to 2800 nM
Nc1ncccc1C(=O)c1nc(N2CCNC(c3ccccc3)C2)ccc1OC(F)F (stereo not shown) [compound 360]		50 to 500 nM	500 to 2800 nM
NCCSc1ccc(C(F)(F)F)c(C(=O)c2cccnc2N)n1 [compound 367]		500 to 2800 nM	500 to 2800 nM
NCCNc1ccc(C(F)(F)F)c(C(=O)c2cccnc2N)n1 [compound 371]		500 to 2800 nM	500 to 2800 nM
NCCCNc1ccc(C(F)(F)F)c(C(=O)c2cccnc2N)n1 [compound 372]		500 to 2800 nM	500 to 2800 nM
Nc1ncccc1C(=O)c1nc(NCC2CCNC2)ccc1C(F)(F)F (stereo not shown) [compound 377]		50 to 500 nM	500 to 2800 nM
Nc1ncccc1C(=O)c1nc(NCC2CCCN2)ccc1C(F)(F)F (stereo not shown) [compound 379]		500 to 2800 nM	500 to 2800 nM
Nc1ncccc1C(=O)c1nc(NCC2CCCNC2)ccc1C(F)(F)F (stereo not shown) [compound 387]		50 to 500 nM	500 to 2800 nM
Cc1cccc(C2CN(c3ccc(C(F)(F)F)c(C(=O)c4cccnc4N)n3)CCN2)c1 (stereo not shown) [compound 392]		50 to 500 nM	< 50 nM
CC(C)[C@H](N)CNc1ccc(C(F)(F)F)c(C(=O)c2cccnc2N)n1 [compound 395]		500 to 2800 nM	500 to 2800 nM
CC(C)[C@H](N)COc1ccc(C(F)(F)F)c(C(=O)c2cccnc2N)n1 [compound 400]		500 to 2800 nM	500 to 2800 nM
CC(C)C[C@H]1CN(c2ccc(CC(F)F)c(C(=O)c3cccnc3N)n2)CCN1 [compound 401]		50 to 500 nM	500 to 2800 nM

Further lines, results first:

Ki (PKC theta)	Ki (PKC delta kinase)	Ki (PKC alpha kinase)	SMILES
500 to 2800 nM	500 to 2800 nM		COC(=O)N1CCCN(c2cccc(C(=O)c3cccnc3N)n2)CC1 [compound 9]
500 to 2800 nM			Nc1ncccc1C(=O)c1cccc(N2CCCN(C(=O)Oc3ccccc3Cl)CC2)n1 [compound 15]
500 to 2800 nM	> 2800 nM		CC(C)(O)C(=O)N1CCCN(c2cccc(C(=O)c3cccnc3N)n2)CC1 [compound 19]
500 to 2800 nM	> 2800 nM		Nc1ncccc1C(=O)c1cccc(N2CCCN(C(=O)c3ccccc3)CC2)n1 [compound 32]
500 to 2800 nM			Nc1ncccc1C(=O)c1cccc(N2CCCN(C(=O)C3CC3)CC2)n1 [compound 36]
500 to 2800 nM			Nc1ncccc1C(=O)c1cccc(N2CCCN(C(=O)C3CCCCC3)CC2)n1 [compound 38]
500 to 2800 nM	> 2800 nM		Nc1ncccc1C(=O)c1cccc(N2CCCN(C(=O)CC3CCCCC3)CC2)n1 [compound 39]
500 to 2800 nM	> 2800 nM		CC(C)(C)C(O)C(=O)N1CCCN(c2cccc(C(=O)c3cccnc3N)n2)CC1 (stereo not shown) [compound 41]
500 to 2800 nM			CC(C)N(Cc1ccccc1)C(=O)c1ccc(C(=O)c2cccnc2N)s1 [compound 48]
500 to 2800 nM			Nc1ncccc1C(=O)c1cccc(N2CCCN(C(=O)Oc3ccccc3)CC2)n1 [compound 52]
500 to 2800 nM			C=Cc1cnc(N)c(C(=O)c2cccc(N3CCCN(C(=O)OC(C)(C)C)CC3)n2)c1 [compound 60]
500 to 2800 nM			COC(=O)N1CCCN(c2cccc(C(=O)c3cc(Br)cnc3N)n2)CC1 [compound 69]
500 to 2800 nM			Nc1ncc(Br)cc1C(=O)c1cc(N2CCCNCC2)cs1 [compound 83]
500 to 2800 nM			Nc1ncccc1C(=O)c1cc(N2CCCNCC2)cs1 [compound 84]
500 to 2800 nM			Nc1ncccc1C(=O)c1cccc(N2CCC(N)C2)n1 (stereo not shown) [compound 85]
500 to 2800 nM			Nc1ncccc1C(=O)c1nc(N2CCCN(C(=O)CC(F)(F)F)CC2)cs1 [compound 95]
500 to 2800 nM			N#CCCN1CCN(c2cccc(C(=O)c3cc(Br)cnc3N)n2)CC1 [compound 96]

Ki (PKC theta)	Ki (PKC delta kinase)	Ki (PKC alpha kinase)	SMILES
500 to 2800 nM			Nc1ncc(Br)cc1C(=O)c1cccc(N2CCN(CCO)CC2)n1 [compound 97]
500 to 2800 nM			CN(Cc1ccccc1)C(=O)c1ccc(C(=O)c2cccnc2N)s1 [compound 103]
500 to 2800 nM			Nc1ncccc1C(=O)c1ccnc(N2CCCNCC2)n1 [compound 111]
500 to 2800 nM			NC(=O)C1CCCN(c2cccc(C(=O)c3cc(Br)cnc3N)n2)C1 (stereo not shown) [compound 122]
500 to 2800 nM			Nc1ncc(Br)cc1C(=O)c1cccc(N2CC[C@H](O)C2)n1 [compound 123]
500 to 2800 nM			CN(CC(O)c1ccccc1)c1cccc(C(=O)c2cc(Br)cnc2N)n1 (stereo not shown) [compound 124]
500 to 2800 nM			Nc1ncccc1C(=O)c1csc(N2CCCNCC2)n1 [compound 125]
500 to 2800 nM			Nc1ncccc1C(=O)c1cccc(N2CCC(NC(=O)CC(F)(F)F)CC2)n1 [compound 129]
500 to 2800 nM			Nc1ncc(Br)cc1C(=O)c1cccc(NCCN2CCCCC2)n1 [compound 141]
500 to 2800 nM			CCN(Cc1ccccc1)c1cccc(C(=O)c2cc(Br)cnc2N)n1 [compound 142]
500 to 2800 nM			CN(C)CCN(Cc1ccccc1)c1cccc(C(=O)c2cc(Br)cnc2N)n1 [compound 143]
500 to 2800 nM			Nc1ncc(Br)cc1C(=O)c1cccc(N2CCN(C3CCCC3)CC2)n1 [compound 144]
500 to 2800 nM			Nc1ncc(Br)cc1C(=O)c1cccc(N2CCCC(c3ccccc3)C2)n1 (stereo not shown) [compound 145]
500 to 2800 nM			CC(C)(O)C#Cc1cnc(N)c(C(=O)c2cccc(N3CCCNCC3)n2)c1 [compound 147]
500 to 2800 nM			Nc1ncccc1C(=O)c1cccc(N2CCC(NC3CC3)CC2)n1 [compound 148]
500 to 2800 nM			CNC1CCN(c2cccc(C(=O)c3cccnc3N)n2)CC1 [compound 159]
